According to US20190204335A1, “Assay Method For Determining The Risk Of Pre-Eclampsia” (The Queen's University of Belfast, priority 2016, published 2019):
“Also recorded” adds a separate entry of the source.

Tests used:
[1] = test system: FKBPL; assay: FKBPL mRNA levels in HTR8.SV.neo cells; assay type: cell-based; settings: 10 μM, 24 h, serum-containing medium
Protocol: (§1) Trophoblast (HTR8.SV.neo, BeWo) and endothelial cells (HUVEC) were exposed to: • i. diabetic stimuli, in the form of highly oxidised and glycated low density lipoproteins (HOG-LDL, 25 μg/ml)/4HNE (10 μM) or high glucose (10, 20, 30, 40 mM); or • ii. hypoxia (1%) or DMOG (10 μM), before FKBPL/SIRT1 protein and RNA levels were measured.

[2] = test system: FKBPL; assay: FKBPL protein expression in BeWo trophoblast cell line; assay type: cell-based; settings: BeWo cells, 10 μM, serum-containing medium
Protocol: as §1

[3] = test system: FKBPL; assay: FKBPL protein level in HUVEC under hypoxia or normoxia (Western blotting); assay type: cell-based, human; settings: 24 h, metformin 10 μM
Protocol: HUVEC cells were seeded and then exposed to hypoxia (1%) or normoxia (21%) for 24 h in the presence of metformin or vehicle control (VC). Protein lysates were prepared and FKBPL protein level measured using Western blotting.

SMILES	FKBPL mRNA levels [1]	FKBPL mRNA levels ([1]; listed as 4HNE)	FKBPL protein expression [2]	FKBPL protein expression ([2]; listed as 4HNE)	FKBPL expression normalised to vehicle control ([3]; hypoxia (1%))	FKBPL expression normalised to vehicle control ([3]; normoxia (21%))
CCCCCC(O)/C=C/C=O (centres unmarked) [4-HNE]	No change	No change in FKBPL mRNA levels	downregulation of FKBPL protein expression	reduction in FKBPL protein levels		
COC(=O)CNC(=O)C(=O)OC [DMOG]	reduction in FKBPL mRNA levels; also recorded: downregulation in FKBPL mRNA levels		reduction; also recorded: downregulation of FKBPL protein expression			
CN(C)C(=N)N=C(N)N [metformin]					increasing the protein expression of FKBPL; also recorded: upregulates FKBPL	No change in FKBPL levels; also recorded: does not affect levels of FKBPL
